From patent US10391070B2, “Compositions and methods for treating neurological diseases or injury” (MUSC FOUNDATION FOR RESEARCH DEVELOPMENT, priority 2012, dated 2019) come the findings set out here.

Structures are written as SMILES.

The first data set has as its system HT22 cells. Briefly: In vitro neuroprotective activity against glutamate-induced cell death (MTS cell viability). Format: cell-based, mouse. To be noted: HT22 cells, glutamate. The protocol: (§1) The HT22 neuronal cell line is a subclone of HT4, derived from the mouse hippocampus (Morimoto and Koshland, 1990). […] HT22 cells were used. The cells were grown in Dulbecco's Modified Eagle's medium (DMEM/high glucose) supplemented with 10% fetal bovine serum (Hyclone) and 5 mL Antibiotic-Antimycotic (Amphotericin B, Penicillin, and Streptomycin; Invitrogen) at 37° C. in 5% CO2.
(§2) Cell viability was assessed by the ability of the viable cells to metabolize 3-(4,5-dimethylthiazol-2-yl)-5-(3-carboxymethoxyphenyl)-2(4-sulfophenyl)2-H-tetrazolium, inner salt (MTS), as described previously (Cory et al., 1991). The metabolism of tetrazolium salts is often used to measure cellular proliferation, but in the system used here, it has been previously shown to correlate well with cell viability as determined by trypan blue exclusion and colony-forming assays (Davis and Maher, 1994). Briefly, HT-22 cells were seeded onto 96-well plates at 5.0×10^3 cells per well in 75 μL of medium and maintained at 37° C. in 5% CO2 overnight prior to the initiation of experimental treatments. For glutamate toxicity testing, cells were subsequently treated with 25 μL of medium containing glutamate (monosodium glutamate, Sigma, 1 M stock concentration in media, to achieve a final concentration of 10 mM) plus inhibitors (stock in DMSO) and maintained at 37° C. in 5% CO2. For t-BuOOH toxicity testing, cells were subsequently treated with 25 μL of medium containing t-BuOOH (Sigma, 10 mM stock concentration, to achieve a final concentration of 50 μM) plus inhibitors (stock in DMSO) and maintained at 37° C. in 5% CO2 for 3 hours, after which the media was removed, cells washed gently with HBSS, the media replaced with standard culture media, and the cells returned to incubation at 37° C. in 5% CO2. For both glutamate and t-BuOOH treatments, 10 μl of MTS solution was added to each well 24 hrs after initial treatment, and the cells were maintained in growth medium for 2 h at 37° C. Absorbance at 490 nm was subsequently measured by a SpectraMax 190 plate reader (Molecular Devices). The growth medium without cells in the presence of MTS solution was used as solution background and untreated cells were considered the controls. Cell viability was calculated as a percentage compared with untreated controls. EC50 determinations were based on 12-point titrations using GraphPad Prism, and each experiment was repeated at least four times. Morphology of HT22 cells following treatments was determined by phase-contrast microscopy. Digital images of cells grown on cell culture plates were captured at 10× magnification.
The neuroprotective properties of VK and its derivatives were estimated through their protective effects against cell death in mouse neuronal HT22 cells induced by exposure to high levels of glutamate, which recapitulates a hallmark of the extracellular environment found in several neurodegenerative diseases and CNS injuries and is a well established model of neuronal oxidative stress. This investigation began by comparing the relative abilities of the two predominant naturally occurring forms of VK, VK1 and VK2, to prevent oxidative cell death. […] Several 1,4-naphthoquinones with various substitutions at the 2′ and 3′ positions were tested to determine the minimum structural requirement of the system and what the optimum scaffold for future developmental efforts and biological validation would be (FIG. 1B and Table 1). […] Substitution by a single methyl group at the 2′ position (VK3) improves the compound's ability to protect against cell death. Various other simple substituents at the 2′ and 3′ positions give the naphthoquinone structure the ability to prevent oxidative cell death at nanomolar concentrations (Table 1 and FIG. 16).
Consider `CC1=C(C/C=C(\C)CCC[C@H](C)CCC[C@H](C)CCCC(C)C)C(=O)c2ccccc2C1=O` [VK1, phylloquinone, reference compound], for which the “protection from oxidative cell death” value is given as “rescued HT22 cells from oxidative cell death”.

The data set is the same for the next values; noted with them: Mus musculus, HT-22, 24 h, read-out: Protection PC50.
Consider `O=C(NC1=CC(=O)c2ccccc2C1=O)c1ccccc1` [Compound 3g, N-(1,4-dioxo-1,4-dihydronaphthalen-2-yl)benzamide], for which the EC50 came to 0.5 µM.

Still in this data set, the particulars now being: Mus musculus, HT-22; HT22 cells, 10 mM glutamate, 24 hrs, MTS; concentration producing 50% protection; read-out: Protection PC50.
As for `CC(C)C(=O)NC1=CC(=O)c2ccccc2C1=O` [Compound 3d, N-(1,4-dioxo-1,4-dihydronaphthalen-2-yl)isobutyramide], the EC50 is above 1 µM.
For the compound `O=C1C=C(NC(=O)C2CCCC2)C(=O)c2ccccc21` [Compound 3e, N-(1,4-dioxo-1,4-dihydronaphthalen-2-yl)cyclopentanecarboxamide], the EC50 is above 1 µM.
For the compound `O=C1C=C(NC(=O)C2CCCCC2)C(=O)c2ccccc21` [Compound 3f, N-(1,4-dioxo-1,4-dihydronaphthalen-2-yl)cyclohexanecarboxamide], the EC50 stood at 0.275 µM.
As for `Cc1ccc(C(=O)NC2=CC(=O)c3ccccc3C2=O)cc1` [Compound 3h, N-(1,4-dioxo-1,4-dihydronaphthalen-2-yl)-4-methylbenzamide], the EC50 amounted to 0.382 µM.
Still for that read-out and setting: for `O=C(NC1=CC(=O)c2ccccc2C1=O)c1ccc(Cl)cc1` [Compound 3i, 4-chloro-N-(1,4-dioxo-1,4-dihydronaphthalen-2-yl)benzamide] the value was 0.405 µM.

Tested on in a further data set: not listed separately
Briefly: In vitro neurotoxicity without glutamate (MTS cell viability). To be noted: mouse, HT22 neuronal cells (without glutamate); HT22 cells without glutamate, 24 hrs, MTS; concentration producing 50% toxicity; read-out: Toxicity TC50. Format: cell-based, mouse. The method, then:
as §1, §2
Turning to `CC(C)C(=O)NC1=CC(=O)c2ccccc2C1=O` [Compound 3d, N-(1,4-dioxo-1,4-dihydronaphthalen-2-yl)isobutyramide], the CC50 at 24 h amounted to 8 µM.
Take `O=C1C=C(NC(=O)C2CCCC2)C(=O)c2ccccc21` [Compound 3e, N-(1,4-dioxo-1,4-dihydronaphthalen-2-yl)cyclopentanecarboxamide]: the CC50 at 24 h was determined as 6 µM.
In the case of `O=C1C=C(NC(=O)C2CCCCC2)C(=O)c2ccccc21` [Compound 3f, N-(1,4-dioxo-1,4-dihydronaphthalen-2-yl)cyclohexanecarboxamide], the CC50 at 24 h is 14 µM.
Same read-out and setting: the same measure for `O=C(NC1=CC(=O)c2ccccc2C1=O)c1ccccc1` [Compound 3g, N-(1,4-dioxo-1,4-dihydronaphthalen-2-yl)benzamide]: 17 µM.
Same read-out and setting: for `Cc1ccc(C(=O)NC2=CC(=O)c3ccccc3C2=O)cc1` [Compound 3h, N-(1,4-dioxo-1,4-dihydronaphthalen-2-yl)-4-methylbenzamide] the value was 24 µM; for `O=C(NC1=CC(=O)c2ccccc2C1=O)c1ccc(Cl)cc1` [Compound 3i, 4-chloro-N-(1,4-dioxo-1,4-dihydronaphthalen-2-yl)benzamide], 27 µM.

Another data set concerns HT22 cells. Described as above. The data set is classed as cell-based, mouse.
Conditions: not given
The protocol:
as §1, §2
Consider `CC1=C(C/C=C(\C)CCC[C@H](C)CCC[C@H](C)CCCC(C)C)C(=O)c2ccccc2C1=O` [VK1, phylloquinone, reference compound], for which the cellular toxicity result is recorded as “neither exhibited any signs of cellular toxicity”.

Still in this data set, the particulars now being: HT22 cells.
With `CC(C)C(=O)NC1=CC(=O)c2ccccc2C1=O` [Compound 3d, N-(1,4-dioxo-1,4-dihydronaphthalen-2-yl)isobutyramide], the “Safety Index TC50/PC50” value stood at 0.
Take `O=C1C=C(NC(=O)C2CCCC2)C(=O)c2ccccc21` [Compound 3e, N-(1,4-dioxo-1,4-dihydronaphthalen-2-yl)cyclopentanecarboxamide]: the “Safety Index TC50/PC50” value came to 0.
Turning to `O=C1C=C(NC(=O)C2CCCCC2)C(=O)c2ccccc21` [Compound 3f, N-(1,4-dioxo-1,4-dihydronaphthalen-2-yl)cyclohexanecarboxamide], the “Safety Index TC50/PC50” value was found to be 51.
As to `O=C(NC1=CC(=O)c2ccccc2C1=O)c1ccccc1` [Compound 3g, N-(1,4-dioxo-1,4-dihydronaphthalen-2-yl)benzamide], the “Safety Index TC50/PC50” value is listed as 34.
For `Cc1ccc(C(=O)NC2=CC(=O)c3ccccc3C2=O)cc1` [Compound 3h, N-(1,4-dioxo-1,4-dihydronaphthalen-2-yl)-4-methylbenzamide], the “Safety Index TC50/PC50” value is 63.
Turning to `O=C(NC1=CC(=O)c2ccccc2C1=O)c1ccc(Cl)cc1` [Compound 3i, 4-chloro-N-(1,4-dioxo-1,4-dihydronaphthalen-2-yl)benzamide], the “Safety Index TC50/PC50” value worked out at 67.

For the next data set, the system named is PTZ-induced seizures. Kind of data set: PTZ-induced seizure (swim activity) model in zebrafish larvae. Format: in vivo, zebrafish (Danio rerio). As to conditions: PTZ-treated 6 dpf zebrafish, up to 100 mM. The method, then:
The DanioVision locomotion tracking instrument with Ethovision XT software (Noldus) was used to measure the severity of the seizures by quantifying the locomotor activity of each fish.
In a 48-well plate, one 6-7 dpf larva was added per well. Compounds were given at a sub-lethal dose and treated for 1 h. Three control rows were included—tank water (TW) only, PTZ only and PTZ+VPA (2-4 mM final concentration of VPA). […] After 5 min, the plate was transferred to the Daniovision apparatus and the chamber light was turned on. After 2 min, Ethovision was used to determine the distance traveled (a marker of seizure of activity) by each fish for 15 min (25 frames per second). Velocity, duration of movement, and frequency of movement were also determined from the same recording. After measurement, fish were monitored visually for survival. The distance moved over the recording period with Ethovision XT software (Noldus) was averaged over 8 wells per treatment unless the fish was not detected.
In a 48-well plate, one 7 dpf zebrafish was added per well. Larvae were dosed with each compound at a sub-lethal dose 1 h prior to PTZ treatment. Three control rows were included with each experiment—tank water only control, PTZ only and PTZ+VPA (4 mM final concentration of VPA). […] After 5 min, the plate was transferred to the Daniovision instrument (Noldus Information Technology) and the chamber light was turned on. After 2 min, MediaRecorder (Noldus) was used to record video for 15 min. A small number of videos were acquired 25 frames per second, but the majority of the data was acquired at the frame rate of 60 frames per second. After recording, fish were monitored visually for survival. Ethovision XT software (Noldus) was used to track the fish movement from the video images in order to calculate the total distance traveled over 15 min. […] All experimental comparisons were made between animals from the same clutch.
For the compound `CC1=C(C/C=C(\C)CCC[C@H](C)CCC[C@H](C)CCCC(C)C)C(=O)c2ccccc2C1=O` [VK1, phylloquinone, reference compound], the reduction of seizures result is “neither were found to reduce seizures”.
